Literature values in US20250375436A1, “SERDEXMETHYLPHENIDATE FOR TREATMENT OF IDIOPATHIC HYPERSOMNIA” (ZEVRA THERAPEUTICS, INC., priority 2024, published 2025).

Test system: Patients with IH
Conditions: cited from earlier work

In the case of `O=C(O)CCCO` [oxybate], the TEAE anxiety (in vivo) is given as 11%, the TEAE dizziness (in vivo) is given as 12% and the TEAE headache (in vivo) is given as 18%. The TEAE nausea (in vivo) was 22 % of subjects, the TEAE vomiting (in vivo) was 11% and the “Patients reporting worsening symptoms (PGI-C scale)” value (oxybate-treated patients) was 21%.
